Results published in paper PMC13401508 (Pharmacological research, 2026).

Experiments:
[1] = tested on: HS5, RWPE-1, C4–2B, PC3-ML, ARCaP-M and RM1-BM cells; test: Colony formation (clonal) assay; format: cell-based, human and murine; conditions: 50 μM, six repeated doses over a two-week period, tumor and non-tumor cells
Procedure: 200 cells/well were seeded in triplicate in 6-well plates. […] The colonies were fixed with ice-cold Methanol and stained with 0.5% crystal violet and counted.
Fig. 1. Primary characterization of IVMT-Rx-4. A) Chemical structure (upper panel) and synthesis scheme (lower panel). […] All proteins were extracted, and Western blotting was performed immediately after heating. Quantifications were obtained in the absence (control) or presence of IVMT-Rx-4 and values are presented as percentage of RT (room temperature) normalized for the experimental groups (control, IVMT-Rx-4). SOD (Superoxide dismutase) was used as an endogenous control. […] Colonies were stained with crystal violet and counted (n = 3 ± SD; ns: non-significant). […] Invaded cells were stained with crystal violet. Top panel: representative photograph of invaded cells under different experimental settings. Bottom panel: graphical representation of number of invaded cells/field for different cell lines (n = 3 ± SD; * p < 0.05).

[2] = Stability in liver microsomes with NADPH and UDPGA; format: in vitro ADME; conditions: liver microsomes; all species (human, monkey, dog, rat, mouse), NADPH and UDPGA added; read-out: t½ in liver microsomes
Procedure: Test samples were incubated at 37 °C, and Verapamil was used as a positive control. Samples were drawn from the incubation solution at different timepoints, centrifuged, then diluted with ultra-pure H20 and analyzed via LC-MS/MS. The natural logarithm of the remaining parent drug at each timepoint was plotted against incubation time, and the following equation was used to calculate the in vitro half-life:
in vitro t1/2 = -(0.693/k), where k is the rate constant.

CYP2E1 = biological target: T1, CYP2E1 (Homo sapiens, UniProt P05181); test: Drug-substrate based CYP inhibition, 2E1; format: in vitro ADME; conditions: human liver microsomes
T1 construct: in the presence of human liver microsomes; from tissue; host or cells: human liver microsomes
Procedure: IVMT-Rx-4 was incubated with selective probe substrates of each CYP isoform in the presence of human liver microsomes. The formation of metabolite was quantified using LC-MS/MS methods. The extent of inhibition was assessed by calculating the remaining enzyme activity and percent inhibition based on analyte-to-internal standard area ratios, using the following equations:
Area Ratio = Peak AreaAnalyte / Peak AreaInternal Standard
Remaining Activity (%) = Area Ratiotest compound / Area Ratiovehicle ×100
Inhibition (%) = 100 ̶ Remaining Activity (%)

[3] = Dynamic vapor sorption (DVS); format: physicochemical; conditions: for moisture adsorption: 25°C
Procedure: Hygroscopicity and moisture absorption of IVMT-Rx-4 were assessed using dynamic vapor sorption on a DVS instrument (SMS, DVS Intrinsic). Samples 20.4 mg in size were first treated at 25°C for several hours while under nitrogen flow. They were then treated with water vapor at various partial pressures with relative humidities which ranged from 0 to 90% at 25°C.

[4] = Solubility study in bio-relevant media, buffers and solvents; format: physicochemical
NF-κB p65 = NF-κB p65 transcription factor activation assay; format: cell-based, human; conditions: PC3-ML, ARCaP-M and C4–2B cells, 24 hrs, vs vehicle
Procedure: NF-κB p65 transcription factor assay kits were obtained from Cayman Chemical, USA and performed following the manufacturer’s instructions.
(§1) Fig. 2. […] NF-κB activity was measured by absorbance at 450 nm (n = 3 ± SD; * p < 0.05). […] C) PDGF-AA protein levels were determined in the three PC cell line-derived conditioned media by ELISA. In both panels: n = 3 ± SD; * p < 0.05.

PDGF-AA = PDGF-AA mRNA expression by qRT-PCR in PC cells; format: cell-based, human; conditions: 24 hrs
Procedure: Total RNA was extracted from cells using miRNeasy kits (Qiagen), and cDNA was prepared as described previously. Gene specific TaqMan Probes were obtained from Applied Bio system, Thermo-Fisher, USA. qRT-PCR was performed using an ABI Quant Studio real-time PCR.
as §1

YAP = test: Western blot, PDGF-AA activated HS5 cells: YAP; format: cell-based, human; conditions: PDGF-AA 10 ng/ML, 25 μM, 24 hrs
CXCL5 = CXCL5 mRNA by qRT-PCR in murine BM-MSCs (WT and mda-9 KO); format: cell-based, C57BL/6 mice; conditions: murine PDGF-AA 10 ng/ML, 25 μM, 24 hrs
Procedure: Total bone marrow cells were collected from 6 to 8 weeks male MDA-9/Syntenin^WT (mda-9^WT) and global MDA-9/Syntenin knockout (mda-9^−/−) mice as previously described in Das et al.. mda-9^WT and mda-9^−/− bone marrow derived mesenchymal stromal cells were isolated using a previously outlined protocol.
Fig. 3. […] CXCL5 mRNA expression was measured by qRT-PCR. […] Secreted CXCL5 in CM was measured by ELISA (n = 3 ± SD; * p < 0.05). […] CXCL5 mRNA expression was measured by qRT-PCR (n = 3 ± SD; * p < 0.05).

RM1-BM-Luc cells = test: Combination and survival study, RM1-BM-Luc syngeneic model; format: in vivo, C57BL/6 mice; conditions: RM1-BM-Luc in C57BL/6, day 14, IVMT-Rx-4 30 mg/kg and/or Docetaxel 5 mg/kg 3X a week for two weeks
Procedure: Both syngeneic (C57BL/6) and athymic nude mice were used for survival studies. Tumor cells (RM1-BM-Luc or PC3-ML-Luc) were injected intracardially in a cohort of 40 animals. […] In the combination groups, both regimens were administered 3X a week for two-weeks at the same dose as a single therapy. Animals were imaged periodically and maintained until euthanization was required.
Fig. 5. […] A and B) RM1-BM-Luc (A) or PC3-ML-Luc (B) cells were implanted I.C. in C57BL/6 and athymic nude mice, respectively. […] BLI images were used to detect bone metastases (the percentage incidence of bone metastases in animals was calculated at a single time point, day 14). Values are presented at the bottom panel of the respective group (red, number of animals positive for metastasis and black, total number of experimental animals). C and D) Animals were kept until mandated euthanasia based on IACUC guidelines, considered as disease associated death. The Kaplan–Meier survival curves were generated using GraphPad in both models as described in (A) and (B), respectively. E and F) Log-rank test was performed and values between different experimental groups are presented.

T1 sequence (P05181 whole entry): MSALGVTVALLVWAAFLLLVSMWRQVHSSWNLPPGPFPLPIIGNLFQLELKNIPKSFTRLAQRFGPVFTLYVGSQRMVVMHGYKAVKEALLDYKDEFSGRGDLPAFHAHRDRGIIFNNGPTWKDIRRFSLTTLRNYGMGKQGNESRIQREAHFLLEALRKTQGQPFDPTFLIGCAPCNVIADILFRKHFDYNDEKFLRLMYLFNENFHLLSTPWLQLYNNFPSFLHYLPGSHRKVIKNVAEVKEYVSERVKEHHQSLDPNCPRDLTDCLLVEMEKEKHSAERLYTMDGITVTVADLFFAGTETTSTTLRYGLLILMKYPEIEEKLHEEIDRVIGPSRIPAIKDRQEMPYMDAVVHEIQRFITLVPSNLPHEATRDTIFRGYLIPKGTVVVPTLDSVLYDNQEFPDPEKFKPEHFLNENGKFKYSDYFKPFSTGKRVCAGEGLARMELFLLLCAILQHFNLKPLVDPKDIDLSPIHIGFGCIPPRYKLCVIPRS

Cc1cc(NC(=O)CCc2nnc(-c3ccccc3)o2)c(C)cc1N [IVMT-Rx-4]
cell proliferation (colony formation) [1]: did not inhibit cell proliferation
half-life [2]: > 3.5 h
IC50 (CYP2E1): ~8 µM
moisture adsorption ([3]; 80% RH): 0.98%
moisture adsorption ([3]; 90% RH): 1.06%
hygroscopicity ([3]; DVS): slightly hygroscopic
solubility in FaSSIF, FeSSIF and SIF ([4]; FaSSIF, FeSSIF and SIF): low solubility
solubility in organic solvents ([4]; MeOH, EtOH, CH2Cl2, Acetone and MeCN): relatively good solubility
solubility in SGF ([4]; SGF): relative high solubility
stability in SGF and pH 1.2 buffer ([4]; after the solubility test, both media): degradation was observed
solubility in hexane ([4]; hexane): almost insoluble
pH dependence of solubility ([4]; solubility increased with a decrease of pH): pH dependent
solubility in water ([4]; water): low solubility
NF-κB activity (NF-κB p65): decreased NF-κB activity
PDGF-AA levels in mda-9 knockout clones (PDGF-AA; PC3-ML mda-9 KO and ARCaP-M mda-9 KO): did not further reduce PDGF-AA levels
PDGF-AA mRNA level (PDGF-AA; PC3-ML, ARCaP-M and C4–2B cells, 25 μM or 50 μM): decreased PDGF-AA
phosphorylation of YAP at ser127 (YAP): promoted
CXCL5 mRNA expression (CXCL5; mBM-MSC WT): CXCL5 suppression occurred exclusively in mBM-MSC^WT
CXCL5 mRNA expression (CXCL5; mBM-MSC mda-9 KO): not in mBM-MSC^mda−9 KO cells
bone metastases, Incident/Total number tested (RM1-BM-Luc cells): 3/8
